Data reported in ChEMBL document CHEMBL1143804, “Synthesis and antibacterial evaluation of 1beta-methyl-2-[5-(1-methoxyimino-2-substituted sulfonamide ethyl)pyrrolidin-3-ylthio]carbapenems and their related compounds” (2007).
Converted amounts (≈) assume the structure as drawn.

Legend:
Klebsiella aerogenes = test: Antibacterial activity against Klebsiella aerogenes 1522E; format: functional
Escherichia coli [1] = test: Antibacterial activity against Escherichia coli DC2; format: functional
Staphylococcus aureus [2] = test: Antibacterial activity against Staphylococcus aureus 285; format: functional
Enterobacter cloacae = test: Antibacterial activity against Enterobactor cloacae 1321E; format: functional
Streptococcus pyogenes [3] = test: Antibacterial activity against Streptococcus pyogenes 308A; format: functional
Streptococcus pyogenes [4] = test: Antibacterial activity against Streptococcus pyogenes 77A; format: functional
Staphylococcus aureus [5] = test: Antibacterial activity against Staphylococcus aureus SG511; format: functional
Pseudomonas aeruginosa = test: Antibacterial activity against Pseudomonas aeruginosa 9027; format: functional
Salmonella typhimurium = test: Antibacterial activity against Salmonella Typhimurium; format: functional, Salmonella enterica subsp. enterica serovar Typhimurium; details: Salmonella enterica
Escherichia coli [6] = test: Antibacterial activity against Escherichia coli TEM; format: functional

Row | Compound | MIC (Klebsiella aerogenes) | MIC (Escherichia coli [1]) | MIC (Staphylococcus aureus [2]) | MIC (Enterobacter cloacae) | MIC (Streptococcus pyogenes [3]) | MIC (Streptococcus pyogenes [4]) | MIC (Staphylococcus aureus [5]) | MIC (Pseudomonas aeruginosa) | MIC (Salmonella typhimurium) | MIC (Escherichia coli [6])
1 | CO/N=C(\CNS(C)(=O)=O)[C@@H]1C[C@H](SC2=C(C(=O)O)N3C(=O)[C@H]([C@@H](C)O)[C@H]3[C@H]2C)CN1 | 0.781 µg/mL (≈ 1.64 µM) | 0.195 µg/mL (≈ 0.409 µM) | 0.391 µg/mL (≈ 0.82 µM) | 0.391 µg/mL (≈ 0.82 µM) | 0.098 µg/mL (≈ 0.206 µM) | 0.098 µg/mL (≈ 0.206 µM) | 0.195 µg/mL (≈ 0.409 µM) | 12.5 µg/mL (≈ 26.2 µM) | 0.781 µg/mL (≈ 1.64 µM) | 0.195 µg/mL (≈ 0.409 µM)
2 | CO/N=C(\CN)[C@@H]1C[C@H](SC2=C(C(=O)O)N3C(=O)[C@H]([C@@H](C)O)[C@H]3[C@H]2C)CN1 | 0.195 µg/mL (≈ 0.489 µM) | 0.049 µg/mL (≈ 0.123 µM) | 0.195 µg/mL (≈ 0.489 µM) | 0.098 µg/mL (≈ 0.246 µM) | < 0.01 µg/mL | < 0.01 µg/mL | 0.098 µg/mL (≈ 0.246 µM) | 3.12 µg/mL (≈ 7.83 µM) | 0.098 µg/mL (≈ 0.246 µM) | 0.195 µg/mL (≈ 0.489 µM)
3 | CO/N=C(\CNS(=O)(=O)N(C)C)[C@@H]1C[C@H](SC2=C(C(=O)O)N3C(=O)[C@H]([C@@H](C)O)[C@H]3[C@H]2C)CN1 | 0.391 µg/mL (≈ 0.773 µM) | 0.098 µg/mL (≈ 0.194 µM) | 0.195 µg/mL (≈ 0.386 µM) | 0.195 µg/mL (≈ 0.386 µM) | 0.025 µg/mL (≈ 0.0494 µM) | 0.013 µg/mL (≈ 0.0257 µM) | 0.195 µg/mL (≈ 0.386 µM) | 6.25 µg/mL (≈ 12.4 µM) | 0.195 µg/mL (≈ 0.386 µM) | 0.098 µg/mL (≈ 0.194 µM)

Further lines, results first:

Row | MIC (Klebsiella aerogenes) | MIC (Escherichia coli [1]) | MIC (Staphylococcus aureus [2]) | MIC (Enterobacter cloacae) | MIC (Streptococcus pyogenes [3]) | MIC (Streptococcus pyogenes [4]) | MIC (Staphylococcus aureus [5]) | MIC (Pseudomonas aeruginosa) | MIC (Salmonella typhimurium) | MIC (Escherichia coli [6]) | Compound
4 | 0.195 µg/mL (≈ 0.442 µM) | 0.049 µg/mL (≈ 0.111 µM) | 0.195 µg/mL (≈ 0.442 µM) | 0.049 µg/mL (≈ 0.111 µM) | < 0.01 µg/mL | 0.013 µg/mL (≈ 0.0294 µM) | 0.098 µg/mL (≈ 0.222 µM) | 1.56 µg/mL (≈ 3.53 µM) | 0.098 µg/mL (≈ 0.222 µM) | 0.049 µg/mL (≈ 0.111 µM) | CO/N=C(\CNC(N)=O)[C@@H]1C[C@H](SC2=C(C(=O)O)N3C(=O)[C@H]([C@@H](C)O)[C@H]3[C@H]2C)CN1
5 | 0.049 µg/mL (≈ 0.0969 µM) | 0.013 µg/mL (≈ 0.0257 µM) | 0.098 µg/mL (≈ 0.194 µM) | 0.025 µg/mL (≈ 0.0494 µM) | < 0.01 µg/mL | < 0.01 µg/mL | 0.049 µg/mL (≈ 0.0969 µM) | 3.12 µg/mL (≈ 6.17 µM) | 0.025 µg/mL (≈ 0.0494 µM) | 0.049 µg/mL (≈ 0.0969 µM) | CCNS(=O)(=O)NC/C(=N\OC)[C@@H]1C[C@H](SC2=C(C(=O)O)N3C(=O)[C@H]([C@@H](C)O)[C@H]3[C@H]2C)CN1
